Measurements published in US20070128217A1 (priority 2003, published 2007).

Legend:
[1] = tested on: antibodies in sera from SARS patients (sera 1a, 1b, 2, 6, 37, 62, London, SARS-yellow, SARS-green); type: binding, human; design: Binding of serum 6 to linear peptides of protein X1 of SARS-CoV Urbani / Binding of serum 37 to linear peptides of protein X1 of SARS-CoV Urbani / Binding of serum 6 to looped/cyclic peptide (PEPSCAN-ELISA) / Binding of serum 37 to looped/cyclic peptide (PEPSCAN-ELISA) / Binding of serum 37 to looped/cyclic peptides of protein X1 of SARS-CoV Urbani / Binding of serum 6 to linear peptides of protein X2 / Binding of serum 37 to linear peptides of protein X2 / Binding of serum 37 to looped/cyclic peptides of protein X2 of SARS-CoV Urbani / Binding of serum 6 to linear peptides of protein M of SARS-CoV Urbani / Binding of serum 37 to linear peptides of protein M of SARS-CoV Urbani / Binding of serum 6 to looped/cyclic peptides of protein M of SARS-CoV Urbani / Binding of serum 37 to looped/cyclic peptides of protein M of SARS-CoV Urbani / Binding of serum 6 to linear peptides of protein X3 of SARS-CoV Urbani / Binding of serum 37 to linear peptides of protein X3 of SARS-CoV Urbani / Binding of serum 37 to looped/cyclic peptides of protein X3 of SARS-CoV Urbani / Binding of serum 6 to linear peptides of protein X4 of SARS-CoV Urbani / Binding of serum 37 to linear peptides of protein X4 of SARS-CoV Urbani / Binding of serum 37 to looped/cyclic peptides of protein X4 of SARS-CoV Urbani / Binding of serum 6 to linear peptides of protein X5 of SARS-CoV Urbani / Binding of serum 37 to linear peptides of protein X5 of SARS-CoV Urbani / Binding of serum 37 to looped/cyclic peptides of protein X5 of SARS-CoV Urbani / Binding of serum 6 to linear peptides of protein N of SARS-CoV Urbani / Binding of serum 37 to linear peptides of protein N of SARS-CoV Urbani / Binding of serum 6 to linear peptide (PEPSCAN-ELISA) / Binding of serum 1a to looped/cyclic peptides of protein N of SARS-CoV Urbani / Binding of serum 1b to looped/cyclic peptides of protein N of SARS-CoV Urbani / Binding of serum 2 to looped/cyclic peptides of protein N of SARS-CoV Urbani / Binding of serum 6 to looped/cyclic peptides of protein N of SARS-CoV Urbani / Binding of serum 37 to looped/cyclic peptides of protein N of SARS-CoV Urbani / Binding of serum 62 to looped/cyclic peptides of protein N of SARS-CoV Urbani / Binding of serum London to looped/cyclic peptides of protein N of SARS-CoV Urbani / Binding of serum SARS-green to looped/cyclic peptides of protein N of SARS-CoV Urbani: unit not given here
[2] = tested on: control sera (pooled serum of ten healthy LUMC hospital workers; commercial negative donor pooled serum from the Dutch bloodbank); type: binding, human; design: Binding of Control serum LUMC to linear peptides / Binding of Control serum Blood-bank to linear peptides / Binding of Control serum LUMC to looped peptides / Binding of Control Serum Blood-Bank to Looped peptides / Binding of Control serum LUMC to linear peptides of the protein M of SARS-CoV Urbani / Binding of Control serum Blood-bank to linear peptides of the protein M of SARS-CoV Urbani / Binding of Control serum LUMC to looped peptides of the protein M of SARS-CoV Urbani / Binding of Control Serum Blood-Bank to Looped peptides of the protein M of SARS-CoV Urbani: unit not given here
[3] = tested on: rabbit serum obtained by immunizing a rabbit with the SARS-CoV strain Frankfurt 1; type: binding; design: Binding of a rabbit serum to linear peptides / Binding of a rabbit serum to looped peptides / Rabbit serum linear peptides / Rabbit serum looped peptides / Binding of a rabbit serum to linear peptides of protein N of SARS-CoV Urbani (Rabbit serum linear peptides) / Binding of a rabbit serum to looped/cyclic peptides of protein N of SARS-CoV Urbani (Rabbit serum looped peptides): unit not given here

TSLLKTHRMCKYTQS
Binding of serum 1a to linear peptides of protein X2 [1]: 0.7
Binding of serum 1a to looped/cyclic peptides of protein X2 of SARS-CoV Urbani [1]: 0.4
Binding of serum 1b to linear peptides of protein X2 [1]: 0.7
Binding of serum 1b to looped/cyclic peptides of protein X2 of SARS-CoV Urbani [1]: 0.3
Binding of serum 2 to linear peptides of protein X2 [1]: 0.6
Binding of serum 2 to looped/cyclic peptides of protein X2 of SARS-CoV Urbani [1]: 0.2
Binding of serum 6 to linear peptides of protein X2 [1]: 0.5
Binding of serum 6 to looped/cyclic peptides of protein X2 of SARS-CoV Urbani [1]: 0.2
Binding of serum 37 to linear peptides of protein X2 [1]: 0.7
Binding of serum 37 to looped/cyclic peptides of protein X2 of SARS-CoV Urbani [1]: 0.2
Binding of serum 62 to linear peptides of protein X2 [1]: 0.7
Binding of serum 62 to looped/cyclic peptides of protein X2 of SARS-CoV Urbani [1]: 0.4
Binding of serum London to linear peptides of protein X2 [1]: 0.5
Binding of serum London to looped/cyclic peptides of protein X2 of SARS-CoV Urbani [1]: 0.2
Binding of serum SARS-green to linear peptides of protein X2 [1]: 0.6
Binding of serum SARS-green to looped/cyclic peptides of protein X2 of SARS-CoV Urbani [1]: 0.2
Binding of serum SARS-yellow to linear peptides of protein X2 [1]: 0.8
Binding of serum SARS-yellow to looped/cyclic peptides of protein X2 of SARS-CoV Urbani [1]: 0.3
Binding of Control Serum Blood-Bank to Looped peptides [2]: 0.4
Binding of Control serum Blood-bank to linear peptides [2]: 1.0
Binding of Control serum LUMC to linear peptides [2]: 0.9
Binding of Control serum LUMC to looped peptides [2]: 0.4
Binding of a rabbit serum to linear peptides [3]: 0.4
Binding of a rabbit serum to looped peptides [3]: 0.4

TSLSLHKLLQTLVLK
Binding of serum 1a to linear peptides of protein X2 [1]: 0.7
Binding of serum 1a to looped/cyclic peptides of protein X2 of SARS-CoV Urbani [1]: 0.5
Binding of serum 1b to linear peptides of protein X2 [1]: 0.6
Binding of serum 1b to looped/cyclic peptides of protein X2 of SARS-CoV Urbani [1]: 0.4
Binding of serum 2 to linear peptides of protein X2 [1]: 0.5
Binding of serum 2 to looped/cyclic peptides of protein X2 of SARS-CoV Urbani [1]: 0.3
Binding of serum 6 to linear peptides of protein X2 [1]: 1.0
Binding of serum 6 to looped/cyclic peptides of protein X2 of SARS-CoV Urbani [1]: 0.3
Binding of serum 37 to linear peptides of protein X2 [1]: 0.6
Binding of serum 37 to looped/cyclic peptides of protein X2 of SARS-CoV Urbani [1]: 0.4
Binding of serum 62 to linear peptides of protein X2 [1]: 0.7
Binding of serum 62 to looped/cyclic peptides of protein X2 of SARS-CoV Urbani [1]: 0.6
Binding of serum London to linear peptides of protein X2 [1]: 0.6
Binding of serum London to looped/cyclic peptides of protein X2 of SARS-CoV Urbani [1]: 0.2
Binding of serum SARS-green to linear peptides of protein X2 [1]: 0.7
Binding of serum SARS-green to looped/cyclic peptides of protein X2 of SARS-CoV Urbani [1]: 0.4
Binding of serum SARS-yellow to linear peptides of protein X2 [1]: 0.6
Binding of serum SARS-yellow to looped/cyclic peptides of protein X2 of SARS-CoV Urbani [1]: 0.5
Binding of Control Serum Blood-Bank to Looped peptides [2]: 0.6
Binding of Control serum Blood-bank to linear peptides [2]: 0.9
Binding of Control serum LUMC to linear peptides [2]: 0.6
Binding of Control serum LUMC to looped peptides [2]: 0.6
Binding of a rabbit serum to linear peptides [3]: 0.2
Binding of a rabbit serum to looped peptides [3]: 0.5

TSRTLSYYKLGASQR
Binding of serum 1a to linear peptides of protein M of SARS-CoV Urbani [1]: 0.7
Binding of serum 1a to looped/cyclic peptides of protein M of SARS-CoV Urbani [1]: 0.7
Binding of serum 1b to linear peptides of protein M of SARS-CoV Urbani [1]: 0.7
Binding of serum 1b to looped/cyclic peptides of protein M of SARS-CoV Urbani [1]: 0.3
Binding of serum 2 to linear peptides of protein M of SARS-CoV Urbani [1]: 0.7
Binding of serum 2 to looped/cyclic peptides of protein M of SARS-CoV Urbani [1]: 0.7
Binding of serum 6 to linear peptides of protein M of SARS-CoV Urbani [1]: 0.9
Binding of serum 6 to looped/cyclic peptides of protein M of SARS-CoV Urbani [1]: 1.3
Binding of serum 37 to linear peptides of protein M of SARS-CoV Urbani [1]: 0.7
Binding of serum 37 to looped/cyclic peptides of protein M of SARS-CoV Urbani [1]: 0.6
Binding of serum 62 to linear peptides of protein M of SARS-CoV Urbani [1]: 0.5
Binding of serum 62 to looped/cyclic peptides of protein M of SARS-CoV Urbani [1]: 0.6
Binding of serum London to linear peptides of protein M of SARS-CoV Urbani [1]: 0.5
Binding of serum London to looped/cyclic peptides of protein M of SARS-CoV Urbani [1]: 0.7
Binding of serum SARS-green to linear peptides of protein M of SARS-CoV Urbani [1]: 0.7
Binding of serum SARS-green to looped/cyclic peptides of protein M of SARS-CoV Urbani [1]: 0.3
Binding of serum SARS-yellow to linear peptides of protein M of SARS-CoV Urbani [1]: 0.5
Binding of serum SARS-yellow to looped/cyclic peptides of protein M of SARS-CoV Urbani [1]: 0.9
Binding of Control Serum Blood-Bank to Looped peptides of the protein M of SARS-CoV Urbani [2]: 0.6
Binding of Control serum Blood-bank to linear peptides of the protein M of SARS-CoV Urbani [2]: 0.9
Binding of Control serum LUMC to linear peptides of the protein M of SARS-CoV Urbani [2]: 1.0
Binding of Control serum LUMC to looped peptides of the protein M of SARS-CoV Urbani [2]: 0.8
Rabbit serum linear peptides [3]: 0.3
Rabbit serum looped peptides [3]: 1.1

TTSLSLHKLLQTLVL
Binding of serum 1a to linear peptides of protein X2 [1]: 0.5
Binding of serum 1a to looped/cyclic peptides of protein X2 of SARS-CoV Urbani [1]: 0.5
Binding of serum 1b to linear peptides of protein X2 [1]: 0.5
Binding of serum 1b to looped/cyclic peptides of protein X2 of SARS-CoV Urbani [1]: 0.4
Binding of serum 2 to linear peptides of protein X2 [1]: 0.3
Binding of serum 2 to looped/cyclic peptides of protein X2 of SARS-CoV Urbani [1]: 0.4
Binding of serum 6 to linear peptides of protein X2 [1]: 0.5
Binding of serum 6 to looped/cyclic peptides of protein X2 of SARS-CoV Urbani [1]: 0.5
Binding of serum 37 to linear peptides of protein X2 [1]: 0.5
Binding of serum 37 to looped/cyclic peptides of protein X2 of SARS-CoV Urbani [1]: 0.5
Binding of serum 62 to linear peptides of protein X2 [1]: 0.5
Binding of serum 62 to looped/cyclic peptides of protein X2 of SARS-CoV Urbani [1]: 0.6
Binding of serum London to linear peptides of protein X2 [1]: 0.5
Binding of serum London to looped/cyclic peptides of protein X2 of SARS-CoV Urbani [1]: 1.3
Binding of serum SARS-green to linear peptides of protein X2 [1]: 0.6
Binding of serum SARS-green to looped/cyclic peptides of protein X2 of SARS-CoV Urbani [1]: 0.3
Binding of serum SARS-yellow to linear peptides of protein X2 [1]: 0.3
Binding of serum SARS-yellow to looped/cyclic peptides of protein X2 of SARS-CoV Urbani [1]: 0.5
Binding of Control Serum Blood-Bank to Looped peptides [2]: 0.6
Binding of Control serum Blood-bank to linear peptides [2]: 0.6
Binding of Control serum LUMC to linear peptides [2]: 0.4
Binding of Control serum LUMC to looped peptides [2]: 0.6
Binding of a rabbit serum to linear peptides [3]: 0.1
Binding of a rabbit serum to looped peptides [3]: 0.4

TVSQIQLSLLKVTAF
Binding of serum 1a to linear peptides of protein X2 [1]: 0.5
Binding of serum 1a to looped/cyclic peptides of protein X2 of SARS-CoV Urbani [1]: 0.5
Binding of serum 1b to linear peptides of protein X2 [1]: 0.4
Binding of serum 1b to looped/cyclic peptides of protein X2 of SARS-CoV Urbani [1]: 0.5
Binding of serum 2 to linear peptides of protein X2 [1]: 0.4
Binding of serum 2 to looped/cyclic peptides of protein X2 of SARS-CoV Urbani [1]: 0.4
Binding of serum 6 to linear peptides of protein X2 [1]: 0.5
Binding of serum 6 to looped/cyclic peptides of protein X2 of SARS-CoV Urbani [1]: 1.0
Binding of serum 37 to linear peptides of protein X2 [1]: 0.6
Binding of serum 37 to looped/cyclic peptides of protein X2 of SARS-CoV Urbani [1]: 0.4
Binding of serum 62 to linear peptides of protein X2 [1]: 0.4
Binding of serum 62 to looped/cyclic peptides of protein X2 of SARS-CoV Urbani [1]: 0.6
Binding of serum London to linear peptides of protein X2 [1]: 0.3
Binding of serum London to looped/cyclic peptides of protein X2 of SARS-CoV Urbani [1]: 1.4
Binding of serum SARS-green to linear peptides of protein X2 [1]: 0.1
Binding of serum SARS-green to looped/cyclic peptides of protein X2 of SARS-CoV Urbani [1]: 0.4
Binding of serum SARS-yellow to linear peptides of protein X2 [1]: 0.6
Binding of serum SARS-yellow to looped/cyclic peptides of protein X2 of SARS-CoV Urbani [1]: 0.7
Binding of Control Serum Blood-Bank to Looped peptides [2]: 0.7
Binding of Control serum Blood-bank to linear peptides [2]: 0.5
Binding of Control serum LUMC to linear peptides [2]: 0.6
Binding of Control serum LUMC to looped peptides [2]: 0.7
Binding of a rabbit serum to linear peptides [3]: 0.6
Binding of a rabbit serum to looped peptides [3]: 0.5
